From US20210276987A1, “PHARMACEUTICAL AGENTS FOR USE IN SMOKING AND TOBACCO CESSATION” (Washington State University, priority 2018, published 2021)
pIC50: −log10 of the molar value. Counter-ions that a name gives are not always drawn. Like-named read-outs stand apart in the source and are kept apart here.

Columns and labels:
UGT2B10 = target: T1, UGT2B10 (Homo sapiens, UniProt P36537); assay: biochemical; conditions: for IC50: IC50 against UGT2B10 (μM); for pIC50: IC50 against UGT2B10
T1 sequence (P36537 24-528): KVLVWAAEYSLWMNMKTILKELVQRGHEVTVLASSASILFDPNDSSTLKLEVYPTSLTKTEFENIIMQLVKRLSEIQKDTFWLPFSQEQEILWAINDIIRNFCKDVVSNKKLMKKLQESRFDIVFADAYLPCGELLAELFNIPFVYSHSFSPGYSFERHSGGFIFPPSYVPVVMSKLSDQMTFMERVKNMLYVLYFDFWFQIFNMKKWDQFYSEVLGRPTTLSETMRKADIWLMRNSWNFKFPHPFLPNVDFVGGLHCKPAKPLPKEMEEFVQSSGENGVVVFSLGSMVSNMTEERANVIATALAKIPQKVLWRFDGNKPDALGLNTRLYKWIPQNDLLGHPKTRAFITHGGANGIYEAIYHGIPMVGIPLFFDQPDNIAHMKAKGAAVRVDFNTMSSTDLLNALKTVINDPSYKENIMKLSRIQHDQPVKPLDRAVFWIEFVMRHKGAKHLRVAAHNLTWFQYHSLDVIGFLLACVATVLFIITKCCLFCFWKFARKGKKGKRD
Method: Initial screening assays were performed as described above for the CYP assays using 1 μM or 10 μM of each of the NAs. The inhibitory effects of each agent against UGT2B10 was performed using the known UGT2B10-specific probe substrate, nicotine, in pooled human liver microsomes. […] Pre-incubations containing 500 μM nicotine and 1 or 10 μM NA were subsequently performed at 37° C. in 50 mM Tris-HCl buffer (pH 7.5, in a final volume of 50 μL) and 10 mM MgCl2 for 5 minutes.

CYP2A6 [1] = target: T2, CYP2A6 (Homo sapiens, UniProt P11509); assay: biochemical; conditions: for IC50: IC50 against CYP2A6 (μM), pooled human liver microsomes; for pIC50: IC50 against CYP2A6
T2 sequence (P11509 1-494): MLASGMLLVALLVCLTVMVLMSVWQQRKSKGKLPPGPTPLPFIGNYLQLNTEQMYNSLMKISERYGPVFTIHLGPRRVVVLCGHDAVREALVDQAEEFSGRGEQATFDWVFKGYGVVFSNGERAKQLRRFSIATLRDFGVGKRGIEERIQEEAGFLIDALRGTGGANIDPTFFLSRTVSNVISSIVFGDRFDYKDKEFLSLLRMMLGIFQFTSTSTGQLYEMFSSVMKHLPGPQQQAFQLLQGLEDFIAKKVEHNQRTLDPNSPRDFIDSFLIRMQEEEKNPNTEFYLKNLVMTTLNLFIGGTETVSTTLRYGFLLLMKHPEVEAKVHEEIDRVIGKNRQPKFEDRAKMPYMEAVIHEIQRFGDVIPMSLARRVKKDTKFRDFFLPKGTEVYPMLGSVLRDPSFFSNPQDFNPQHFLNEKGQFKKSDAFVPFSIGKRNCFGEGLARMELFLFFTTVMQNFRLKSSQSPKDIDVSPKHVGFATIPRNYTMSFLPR

CYP2C9 = CYP2C9 (Homo sapiens, UniProt P11712); assay: CYP2C9 inhibition assay, human liver microsomes, diclofenac probe (cocktail); conditions: Table 8, thiophene and furan analogues
CYP2C9, sequence (P11712 whole entry): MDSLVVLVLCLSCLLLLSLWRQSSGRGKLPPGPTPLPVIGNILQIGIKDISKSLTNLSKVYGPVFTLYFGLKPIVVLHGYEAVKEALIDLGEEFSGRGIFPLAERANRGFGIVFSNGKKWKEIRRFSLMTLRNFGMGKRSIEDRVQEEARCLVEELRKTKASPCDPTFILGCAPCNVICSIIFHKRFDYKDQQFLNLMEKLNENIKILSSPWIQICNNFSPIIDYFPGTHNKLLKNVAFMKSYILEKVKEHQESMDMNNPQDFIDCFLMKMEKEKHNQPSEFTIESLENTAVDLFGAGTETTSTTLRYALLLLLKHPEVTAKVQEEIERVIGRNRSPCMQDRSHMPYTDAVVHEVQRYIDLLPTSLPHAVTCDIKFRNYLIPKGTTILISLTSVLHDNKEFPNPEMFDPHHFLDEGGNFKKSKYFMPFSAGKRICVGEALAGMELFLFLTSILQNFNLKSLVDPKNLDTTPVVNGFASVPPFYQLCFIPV

CYP2C19 = CYP2C19 (Homo sapiens, UniProt P33261); assay: CYP2C19 inhibition assay, human liver microsomes, omeprazole probe (cocktail); conditions: Table 8, thiophene and furan analogues
CYP2C19, sequence (P33261 whole entry): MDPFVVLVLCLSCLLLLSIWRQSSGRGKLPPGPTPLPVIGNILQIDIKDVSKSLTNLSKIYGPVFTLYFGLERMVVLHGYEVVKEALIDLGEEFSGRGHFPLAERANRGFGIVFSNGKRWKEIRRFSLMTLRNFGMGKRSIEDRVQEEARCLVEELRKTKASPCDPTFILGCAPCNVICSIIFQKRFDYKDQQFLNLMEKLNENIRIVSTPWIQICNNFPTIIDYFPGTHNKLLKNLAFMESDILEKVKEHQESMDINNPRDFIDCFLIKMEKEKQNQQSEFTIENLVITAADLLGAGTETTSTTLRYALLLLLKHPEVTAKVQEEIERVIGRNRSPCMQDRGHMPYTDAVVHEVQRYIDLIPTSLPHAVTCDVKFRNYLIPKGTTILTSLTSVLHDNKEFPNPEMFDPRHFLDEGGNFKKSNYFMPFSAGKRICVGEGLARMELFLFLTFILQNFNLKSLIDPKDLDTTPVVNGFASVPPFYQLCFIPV

CYP1A2 = target: T3, CYP1A2 (Homo sapiens, UniProt P05177); assay: CYP1A2 inhibition assay, human liver microsomes, phenacetin probe (cocktail); conditions: Table 8, thiophene and furan analogues
T3 sequence (P05177 1-516): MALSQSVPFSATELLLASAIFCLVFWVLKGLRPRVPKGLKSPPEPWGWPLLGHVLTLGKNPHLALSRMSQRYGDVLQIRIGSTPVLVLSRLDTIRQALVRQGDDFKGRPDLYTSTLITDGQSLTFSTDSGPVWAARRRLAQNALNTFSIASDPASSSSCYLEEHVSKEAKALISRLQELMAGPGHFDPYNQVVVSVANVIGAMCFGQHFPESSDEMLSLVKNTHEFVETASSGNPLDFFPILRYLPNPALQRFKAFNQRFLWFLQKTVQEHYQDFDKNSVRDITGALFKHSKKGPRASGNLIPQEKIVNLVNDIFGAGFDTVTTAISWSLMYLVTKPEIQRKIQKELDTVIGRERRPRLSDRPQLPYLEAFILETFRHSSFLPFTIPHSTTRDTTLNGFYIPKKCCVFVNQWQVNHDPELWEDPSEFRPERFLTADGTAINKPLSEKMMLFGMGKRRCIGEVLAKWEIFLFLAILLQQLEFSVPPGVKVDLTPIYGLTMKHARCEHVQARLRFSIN

CYP2B6 = target: T4, CYP2B6 (Homo sapiens, UniProt P20813); conditions: Table 8, thiophene and furan analogues
T4 sequence (P20813 1-491): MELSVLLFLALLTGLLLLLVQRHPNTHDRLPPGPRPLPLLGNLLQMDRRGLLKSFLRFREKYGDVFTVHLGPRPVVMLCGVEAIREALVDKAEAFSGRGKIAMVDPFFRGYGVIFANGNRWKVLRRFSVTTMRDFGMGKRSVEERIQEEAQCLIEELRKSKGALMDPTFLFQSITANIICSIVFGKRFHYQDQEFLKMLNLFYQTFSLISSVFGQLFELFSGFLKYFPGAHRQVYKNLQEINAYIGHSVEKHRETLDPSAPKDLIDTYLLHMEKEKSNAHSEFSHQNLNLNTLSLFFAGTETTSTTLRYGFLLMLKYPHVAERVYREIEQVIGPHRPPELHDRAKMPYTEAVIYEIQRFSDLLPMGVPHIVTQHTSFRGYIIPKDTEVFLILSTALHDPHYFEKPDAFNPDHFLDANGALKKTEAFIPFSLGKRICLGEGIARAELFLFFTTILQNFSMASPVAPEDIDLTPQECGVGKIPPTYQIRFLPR

CYP2D6 = CYP2D6 (Homo sapiens, UniProt P10635); assay: CYP2D6 inhibition assay, human liver microsomes, dextromethorphan probe (cocktail); conditions: Table 8, thiophene and furan analogues
CYP2D6, sequence (P10635 whole entry): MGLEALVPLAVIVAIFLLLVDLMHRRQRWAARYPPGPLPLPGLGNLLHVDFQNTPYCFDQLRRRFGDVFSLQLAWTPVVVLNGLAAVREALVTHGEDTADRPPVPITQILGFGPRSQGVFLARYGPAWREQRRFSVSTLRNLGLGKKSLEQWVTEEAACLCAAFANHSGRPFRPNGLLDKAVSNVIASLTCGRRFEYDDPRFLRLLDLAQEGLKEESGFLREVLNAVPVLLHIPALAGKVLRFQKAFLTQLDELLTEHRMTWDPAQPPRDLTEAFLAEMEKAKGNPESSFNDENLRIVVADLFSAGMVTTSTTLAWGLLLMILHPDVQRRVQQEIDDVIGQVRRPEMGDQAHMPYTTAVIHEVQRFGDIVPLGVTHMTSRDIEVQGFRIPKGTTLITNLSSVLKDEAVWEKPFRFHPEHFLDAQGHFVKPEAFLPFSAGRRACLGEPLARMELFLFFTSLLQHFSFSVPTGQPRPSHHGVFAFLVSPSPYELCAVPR

CYP2E1 = CYP2E1 (Homo sapiens, UniProt P05181); conditions: Table 8, thiophene and furan analogues
CYP2E1, sequence (P05181 whole entry): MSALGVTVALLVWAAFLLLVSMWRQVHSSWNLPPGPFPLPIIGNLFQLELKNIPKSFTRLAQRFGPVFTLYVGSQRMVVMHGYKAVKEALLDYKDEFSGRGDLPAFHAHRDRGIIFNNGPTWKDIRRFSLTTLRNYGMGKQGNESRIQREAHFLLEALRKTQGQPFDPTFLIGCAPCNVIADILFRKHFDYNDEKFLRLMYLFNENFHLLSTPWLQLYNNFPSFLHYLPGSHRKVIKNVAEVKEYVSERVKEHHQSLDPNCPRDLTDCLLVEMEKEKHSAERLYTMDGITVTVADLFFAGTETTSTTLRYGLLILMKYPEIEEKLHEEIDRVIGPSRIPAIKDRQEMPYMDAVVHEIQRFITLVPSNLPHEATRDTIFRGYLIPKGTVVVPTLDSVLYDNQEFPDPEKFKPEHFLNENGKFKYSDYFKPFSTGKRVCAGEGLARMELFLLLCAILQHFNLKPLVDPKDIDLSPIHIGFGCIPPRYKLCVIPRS

in vitro = conditions: for half-life at 10 μM: human, microsomes; for T1/2 (min) in human liver microsomes / half-life (T1/2) in human liver microsomes: pH 7.4
Method: In vitro stability studies. […] Half-lives were calculated using the one-phase exponential decay equation (GraphPad).

CYP2C8 = target: T5, CYP2C8 (Homo sapiens, UniProt P10632); conditions: Table 8, thiophene and furan analogues
T5 sequence (P10632 1-490): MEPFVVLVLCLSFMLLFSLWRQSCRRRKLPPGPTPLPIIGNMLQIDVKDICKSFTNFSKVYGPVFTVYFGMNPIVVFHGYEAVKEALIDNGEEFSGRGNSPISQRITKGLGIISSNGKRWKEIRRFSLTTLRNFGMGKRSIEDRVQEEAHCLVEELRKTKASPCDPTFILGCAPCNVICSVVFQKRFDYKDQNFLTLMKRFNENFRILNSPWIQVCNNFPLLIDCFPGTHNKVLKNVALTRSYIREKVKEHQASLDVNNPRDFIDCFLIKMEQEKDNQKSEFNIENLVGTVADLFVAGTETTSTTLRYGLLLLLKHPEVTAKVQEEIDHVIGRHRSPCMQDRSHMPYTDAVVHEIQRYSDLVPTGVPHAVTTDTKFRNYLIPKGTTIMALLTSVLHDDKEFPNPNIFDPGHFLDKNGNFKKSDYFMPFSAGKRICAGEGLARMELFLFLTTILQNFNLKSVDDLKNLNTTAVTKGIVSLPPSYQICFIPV

CYP2A6 [2] = target: T2, CYP2A6; conditions: both, human, microsomes, pH 7.4
CYP2A6 [3] = target: T2, CYP2A6; assay: in vitro; conditions: both, microsomes, pH 7.4, IC50 against CYP2A6 (μM)
[4] = Table 9, pooled human liver microsomes, nicotine 500 μM
[5] = Table 5, alkyne linker agents, coumarin […]
[6] = pH 7.4, half-life (T1/2) in human liver microsomes

## NCC#Cc1cncc2ccccc12 [Compound A, 3-(isoquinolin-4-yl)prop-2-yn-1-amine Dihydrochloride]
UGT2B10; [4]
  IC50: 770 µM
CYP2A6 [1]; [5]
  IC50: > 10 µM

## NCc1ccc(-c2cnccc2Cl)s1 [Compound AB, (5-(4-chloropyridin-3-yl)thiophene-2-yl)methanamine Dihydrochloride]
CYP2C9
  IC50 ratio CYP2C9/CYP2A6: 182
CYP2C19
  IC50 ratio CYP2C19/CYP2A6: 6.8
CYP1A2
  IC50 ratio CYP1A2/CYP2A6: 17
CYP2B6
  IC50 ratio CYP2B6/CYP2A6: 7.4
CYP2A6 [1]; Table 7, thiophene and furan nicotine analogues, coumarin
  IC50: 0.11 µM
CYP2D6
  IC50 ratio CYP2D6/CYP2A6: 71
CYP2E1
  IC50 ratio CYP2E1/CYP2A6: 47
In vitro; pH 7.4, T1/2 (min) in human liver microsomes
  half-life at 10 μM: 0.183 h
In vitro; [6]
  half-life at 10 μM: < 0.417 h
CYP2C8
  IC50 ratio CYP2C8/CYP2A6: 227

## NCc1ccc(-c2cnccc2-c2cccnc2)o1 [Compound AG, (5-([3,4′-Bipyridin]-3′-yl)furan-2-yl)methanamine Trihydrochloride]
CYP2A6 [2]
  pIC50: 6.42
In vitro; 10 μM
  T1/2 (min) in human liver microsomes: >120 min
In vitro; [6]
  half-life at 10 μM: > 1.5 h

## NCc1ccc(-c2cnccc2-c2ccncc2)s1 [Compound AJ, (5-([4,4′-Bipyridin]-3′-yl)thiophene-2-yl)methanamine Trihydrochloride]
CYP2A6 [2]
  pIC50: 6.48
In vitro; 10 μM
  T1/2 (min) in human liver microsomes: 32 min

## NCc1ccc(-c2cnccc2-c2cncnc2)o1 [Compound AK, (5-(4-(Pyrimidin-5-yl)pyridin-3-yl)furan-2-yl)methanamine Trihydrochloride]
CYP2A6 [2]
  pIC50: 5.89
In vitro; 10 μM
  T1/2 (min) in human liver microsomes: >120 min
In vitro; [6]
  half-life at 10 μM: > 1.5 h

## NCc1ccc(-c2cnccc2-c2cncnc2)s1 [Compound AL, (5-(4-(Pyrimidin-5-yl)pyridin-3-yl)thiophene-2-yl)methanamine Trihydrochloride]
CYP2A6 [2]
  pIC50: 5.92
In vitro; 10 μM
  T1/2 (min) in human liver microsomes: >120 min
In vitro; [6]
  half-life at 10 μM: > 1.5 h

## NCC#Cc1cnc2ccccc2c1 [Compound B, 3-(quinolin-3-yl)prop-2-yn-1-amine]
UGT2B10; [4]
  IC50: > 1000 µM
UGT2B10; little to no inhibition
  pIC50: < 3.00
CYP2A6 [1]; [5]
  IC50: > 10 µM

## Cc1ccncc1C#CCN [Compound C, 3-(4-methylpyridin-3-yl)prop-2-yn-1-amine]
UGT2B10
  pIC50: > 4.22
  IC50: 58 µM
CYP2A6 [2]
  pIC50: 7.26
CYP2A6 [1]
  pIC50: > 6.00
In vitro
  T1/2 (min) in human liver microsomes: 8.4 min
  half-life (T1/2) in human liver microsomes: less than 25 minutes

## Cc1cncc(C#CCN)c1 [Compound D, 3-(5-methylpyridin-3-yl)prop-2-yn-1-amine]
UGT2B10
  pIC50: < 3.00
  IC50: > 1000 µM
CYP2A6 [3]
  IC50: 10 µM

## Cc1ncccc1C#CCN [Compound F, 3-(2-methylpyridin-3-yl)prop-2-yn-1-amine]
UGT2B10; [4]
  IC50: 286 µM
CYP2A6 [1]; [5]
  IC50: > 10 µM

## CCc1ccncc1C#CCN [Compound H, 3-(4-ethylpyridin-3-yl)prop-2-yn-1-amine]
UGT2B10
  pIC50: < 3.00
  IC50: > 1000 µM
CYP2A6 [2]
  pIC50: 6.08
CYP2A6 [1]
  pIC50: > 6.00
In vitro
  T1/2 (min) in human liver microsomes: 9.8 min
  half-life (T1/2) in human liver microsomes: less than 25 minutes

## NCC#Cc1cnccc1-c1ccco1 [Compound M, 3-(4-Furan-2-yl-pyridin-3-yl)-prop-2-ynylamine Dihydrochloride]
CYP2A6 [2]
  pIC50: 6.25
CYP2A6 [1]; human liver microsomes
  pIC50: > 6.00

## NCC#Cc1cnccc1-c1ccncc1 [Compound P, 3-([4,4′-Bipyridin]-3′-yl)prop-2-yn-1-amine Trihydrochloride]
CYP2A6 [2]
  pIC50: 5.44
CYP2A6 [1]; human liver microsomes
  pIC50: > 5.00
In vitro; 10 μM
  T1/2 (min) in human liver microsomes: 36 min

## NCC#Cc1cnccc1-c1cncnc1 [Compound Q, 3-(4-(Pyrimidin-5-yl)pyridin-3-yl)prop-2-yn-1-amine Trihydrochloride]
CYP2A6 [2]
  pIC50: 5.57
CYP2A6 [1]; human liver microsomes
  pIC50: > 5.00
In vitro; 10 μM
  T1/2 (min) in human liver microsomes: >120 min
In vitro; [6]
  half-life at 10 μM: > 1.5 h
